ChEMBL document CHEMBL1141071, “Carbonic anhydrase inhibitors: stacking with Phe131 determines active site binding region of inhibitors as exemplified by the X-ray crystal structure of a membrane-impermeant antitumor sulfonamide complexed with isozyme II” (J Med Chem, 2005)

Target: Carbonic anhydrase 9 (Homo sapiens, UniProt Q16790)
Description: Inhibition of catalytic domain of human recombinant carbonic anhydrase IX

Question: For `Cc1ccc(-c2cc(C(F)(F)F)nn2-c2ccc(S(N)(=O)=O)cc2)cc1` [CELECOXIB], which Ki is on record?
Answer: 16 nM
